Target: ALK tyrosine kinase receptor (Homo sapiens, UniProt Q9UM73, L1196M)
Assay: Binding affinity to human recombinant ALK L1196M mutant (1093 to 1411 residues) assessed as inhibition constant using 5'FAM-KKSRGDYMTMQIG-CONH2 peptide as substrate in presence of ATP by micro-fluidic mobility shift assay

Chain of ALK tyrosine kinase receptor (Q9UM73 19-1620 L1196M limits assumed): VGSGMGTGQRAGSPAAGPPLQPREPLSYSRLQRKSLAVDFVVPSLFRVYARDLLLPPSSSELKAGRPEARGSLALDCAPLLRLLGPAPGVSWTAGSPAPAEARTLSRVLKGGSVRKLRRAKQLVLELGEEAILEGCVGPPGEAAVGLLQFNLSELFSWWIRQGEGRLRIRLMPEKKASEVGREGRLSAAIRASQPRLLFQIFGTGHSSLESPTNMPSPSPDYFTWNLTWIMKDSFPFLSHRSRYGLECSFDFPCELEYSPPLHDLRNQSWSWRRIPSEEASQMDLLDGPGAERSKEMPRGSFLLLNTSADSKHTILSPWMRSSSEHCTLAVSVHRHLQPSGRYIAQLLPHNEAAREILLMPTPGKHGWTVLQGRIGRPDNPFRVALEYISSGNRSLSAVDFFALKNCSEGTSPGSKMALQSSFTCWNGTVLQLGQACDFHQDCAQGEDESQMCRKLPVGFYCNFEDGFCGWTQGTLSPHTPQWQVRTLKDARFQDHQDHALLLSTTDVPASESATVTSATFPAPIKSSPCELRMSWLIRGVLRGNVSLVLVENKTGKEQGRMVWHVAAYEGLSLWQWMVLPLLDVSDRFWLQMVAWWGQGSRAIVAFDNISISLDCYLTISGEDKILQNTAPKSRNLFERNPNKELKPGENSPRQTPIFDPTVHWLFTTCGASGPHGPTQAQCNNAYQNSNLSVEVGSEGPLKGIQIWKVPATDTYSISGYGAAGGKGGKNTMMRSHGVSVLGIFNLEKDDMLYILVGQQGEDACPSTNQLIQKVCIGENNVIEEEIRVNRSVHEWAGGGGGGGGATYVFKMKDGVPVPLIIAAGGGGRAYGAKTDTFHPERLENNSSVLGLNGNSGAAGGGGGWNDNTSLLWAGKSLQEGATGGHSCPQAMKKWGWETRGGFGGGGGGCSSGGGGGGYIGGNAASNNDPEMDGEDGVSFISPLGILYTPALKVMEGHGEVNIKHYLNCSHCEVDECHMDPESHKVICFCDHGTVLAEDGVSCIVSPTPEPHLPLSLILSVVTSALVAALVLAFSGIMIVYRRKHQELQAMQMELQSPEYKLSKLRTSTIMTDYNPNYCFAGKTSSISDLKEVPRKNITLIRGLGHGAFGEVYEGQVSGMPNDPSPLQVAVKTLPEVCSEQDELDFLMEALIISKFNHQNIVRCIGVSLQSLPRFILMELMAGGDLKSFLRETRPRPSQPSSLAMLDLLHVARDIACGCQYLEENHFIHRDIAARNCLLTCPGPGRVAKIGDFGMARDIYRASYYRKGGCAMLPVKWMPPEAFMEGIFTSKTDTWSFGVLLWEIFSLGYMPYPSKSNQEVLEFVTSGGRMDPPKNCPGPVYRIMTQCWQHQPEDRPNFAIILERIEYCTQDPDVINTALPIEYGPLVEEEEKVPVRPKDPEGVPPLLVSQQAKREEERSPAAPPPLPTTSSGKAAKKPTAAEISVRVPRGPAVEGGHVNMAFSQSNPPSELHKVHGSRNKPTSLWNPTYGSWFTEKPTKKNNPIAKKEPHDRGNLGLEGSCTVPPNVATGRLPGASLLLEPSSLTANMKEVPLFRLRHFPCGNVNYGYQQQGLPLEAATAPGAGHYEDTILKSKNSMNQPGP

- Ki: 273 nM
Structure (SMILES): CN1Cc2nn(C)c(C#N)c2-c2cnc(N)c(c2)OCc2cc(F)ccc2C1=O

— ChEMBL document CHEMBL5244206, “Recent encounters with atropisomerism in drug discovery” (Bioorg Med Chem Lett, 2018)
